From ChEMBL document CHEMBL1121648, “Metabolism of 1,3-bis(2-chloroethyl)-1-nitrosourea by rat hepatic microsomes” (J Med Chem, 1981)

Legend:
Rattus norvegicus = species on record: Rattus norvegicus; assay: NADPH-dependent metabolic rate was measured in rat liver microsomal preparations; format: functional
[1] = Half-life for disappearance of compound measured at 37 degree C and pH 7.4 in rat liver microsomal preparations; format: ADME; details: liver microsomes

Question: With `O=C(NCCCl)NCCCl` as the compound, how does the Rate (nM (mg of protein)-1) (Rattus norvegicus) read?
Answer: 54

Question: With `O=NN(CCCl)C(=O)NCCCl` [CARMUSTINE] as the compound, how does the half-life [1] read?
Answer: 1.5 h

Question: And the Rate (nM (mg of protein)-1) (Rattus norvegicus)?
Answer: 56
